This is an account of results in patent US12435068B2, “Anthelmintic compounds” (Elanco Animal Health GmBh, priority 2018, dated 2025).

The term EC50 denotes the concentration that produces a half-maximal response. The term pEC50 denotes −log10 of the EC50, conventionally taken in molar units.

pEC50: −log10 of the molar value. Converted amounts (≈) assume the structure as drawn. A value given as a limit tells only on which side of the number the result lay.

In assay [1] the test system is Dirofilaria immitis microfilariae. Nature of the assay: In Vitro Assay 2: Dirofilaria immitis microfilariae (DIROIM L1) motility. The format is cell-based. As to conditions: 72 h, read-out: EC50 ppm.
In another assay the target is C. elegans Slo-1a (Caenorhabditis elegans, UniProt Q95V25).
C. elegans Slo-1a, sequence (Q95V25 whole entry): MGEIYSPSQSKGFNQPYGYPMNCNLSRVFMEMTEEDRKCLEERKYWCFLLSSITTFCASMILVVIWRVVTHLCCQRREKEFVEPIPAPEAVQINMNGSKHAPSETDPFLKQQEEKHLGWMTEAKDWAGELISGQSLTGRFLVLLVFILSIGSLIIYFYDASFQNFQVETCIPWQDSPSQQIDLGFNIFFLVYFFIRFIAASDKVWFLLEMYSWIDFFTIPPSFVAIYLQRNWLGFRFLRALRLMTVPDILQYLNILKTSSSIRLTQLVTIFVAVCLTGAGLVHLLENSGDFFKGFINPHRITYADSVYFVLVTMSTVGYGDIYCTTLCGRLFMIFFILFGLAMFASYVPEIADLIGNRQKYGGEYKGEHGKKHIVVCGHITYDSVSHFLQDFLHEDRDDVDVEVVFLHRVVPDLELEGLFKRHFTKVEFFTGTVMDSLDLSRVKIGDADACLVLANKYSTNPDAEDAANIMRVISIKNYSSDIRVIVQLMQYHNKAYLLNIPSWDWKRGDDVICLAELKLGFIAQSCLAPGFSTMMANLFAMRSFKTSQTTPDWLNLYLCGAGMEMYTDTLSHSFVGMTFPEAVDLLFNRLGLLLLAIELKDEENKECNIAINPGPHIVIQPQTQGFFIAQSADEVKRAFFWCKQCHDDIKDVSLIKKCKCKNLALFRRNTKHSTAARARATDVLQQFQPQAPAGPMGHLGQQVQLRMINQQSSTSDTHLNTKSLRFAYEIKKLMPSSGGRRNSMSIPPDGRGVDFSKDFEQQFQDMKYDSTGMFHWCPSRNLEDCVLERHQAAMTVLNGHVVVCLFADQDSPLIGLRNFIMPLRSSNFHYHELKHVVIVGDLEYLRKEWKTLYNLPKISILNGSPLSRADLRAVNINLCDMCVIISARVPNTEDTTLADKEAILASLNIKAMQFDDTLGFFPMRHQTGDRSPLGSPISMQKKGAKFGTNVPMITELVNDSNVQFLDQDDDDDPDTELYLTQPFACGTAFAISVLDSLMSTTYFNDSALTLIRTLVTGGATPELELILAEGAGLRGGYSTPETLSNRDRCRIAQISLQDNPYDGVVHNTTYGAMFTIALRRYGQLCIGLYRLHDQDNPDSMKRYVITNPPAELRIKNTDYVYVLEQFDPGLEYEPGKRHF

Protocol for C. elegans Slo-1a: Cells were cultured at 37° C. and 5% CO2 in MEMalpha with Gutamax I (Invitrogen, Nr.: 32571), supplemented with 10% (v/v) heat inactivated fetal bovine serum (Invitrogen, Nr.: 10500), G418 (1 mg/ml, Invitrogen, Nr.: 10131). Cells were detached using Accutase (Sigma, Nr.: A6964).
Membrane Potential Measurements
Laboratory compound testing was performed on 384-well microtiter plates (MTPs, Greiner, Nr.: 781092). 8000 cells/well were plated onto 384-well MTPs and cultured for 20 to 24 hours at 37° C. and 5% CO2. After removal of the cell culture medium, the cells were washed once with tyrode (150 mM NaCl, 0.3 mM KCl, 2 mM CaCl2, 1 mM MgCl2, 0.8 mM NaH2PO4, 5 mM Glucose, 28 mM Hepes, pH 7.4) and then loaded with the voltage sensitive dye of the Membrane Potential Assay Kit diluted in tyrode for 1 h at room temperature.
After starting the measurement of fluorescence using a FLIPR Tetra (Molecular Devices, Exc. 510-545 nm, Emm. 565-625 nm), test compounds were added followed by the addition of KCl tyrode (final assay concentration: 70 mM KCl, 2 mM CaCl2, 1 mM MgCl2, 0.8 mM NaH2PO4, 5 mM Glucose, 28 mM Hepes, pH 7.4, including the voltage sensitive dye). The measurement was completed after 7 minutes.

As for `CN(C)c1c(C(=O)N[C@H]2CCOc3ccccc32)sc2c(-c3cccc(Cl)c3Cl)cccc12` [Example Compound S1-7, 7-(2,3-Dichlorophenyl)-N-[(4S)-3,4-dihydro-2H-chromen-4-yl]-3-(dimethylamino)-1-benzothiophene-2-carboxamide], the EC50 in assay [1] is 0.11 µg/mL (≈ 0.221 µM). On C. elegans Slo-1a, this compound had a pEC50 of 8.00.

Regarding `O=C(N[C@H]1CCc2ccccc21)c1ccc2nc(-c3ccccc3Cl)cnc2c1` [Example Compound S9-3, 2-(2-Chlorophenyl)-N-[(1S)-2,3-dihydro-1H-inden-1-yl]quinoxaline-6-carboxamide], in assay [1], the EC50 was found to be 0.61 µg/mL (≈ 1.53 µM). The pEC50 on C. elegans Slo-1a is 7.00.

With `O=C(N[C@H]1CCOc2ccccc21)c1cc2cccc(-c3cccc(Cl)c3Cl)c2oc1=O` [Example Compound S8a-3, 8-(2,3-Dichlorophenyl)-N-[(4S)-3,4-dihydro-2H-chromen-4-yl]-2-oxo-2H-chromene-3-carboxamide], in assay [1], the EC50 came to 0.25 µg/mL (≈ 0.536 µM). This compound gave a pEC50 on C. elegans Slo-1a of 7.30.

For `COc1c(C(=O)N[C@H]2CCOc3ccccc32)sc2c(-c3cc(Cl)cc(Cl)c3)nccc12` [Example Compound S1-14, 7-(3,5-Dichlorophenyl)-N-[(4S)-3,4-dihydro-2H-chromen-4-yl]-3-methoxythieno[2,3-c]pyridine-2-carboxamide], in assay [1], the EC50 came out at 2 µg/mL (≈ 4.12 µM). At C. elegans Slo-1a, this compound showed a pEC50 of 6.10.

In the case of `CC(C)c1c(C(=O)N[C@H]2CCOc3ccccc32)nc2c(-c3cccc(Cl)c3Cl)cccn12` [Example Compound S3-1, 8-(2,3-Dichlorophenyl)-N-[(4S)-3,4-dihydro-2H-chromen-4-yl]-3-(propan-2-yl)imidazo[1,2-a]pyridine-2-carboxamide], in assay [1], the EC50 is 0.63 µg/mL (≈ 1.31 µM). The compound also showed a pEC50 at C. elegans Slo-1a of 6.60.

Regarding `CC(C)c1c(C(=O)N[C@H]2CCOc3ccccc32)sc2c(-c3cc(Cl)cc(Cl)c3)cccc12` [Example Compound S1-1, 7-(3,5-Dichlorophenyl)-N-[(4S)-3,4-dihydro-2H-chromen-4-yl]-3-isopropyl-1-benzothiophene-2-carboxamide], in assay [1], the EC50 was determined as 0.08 µg/mL (≈ 0.161 µM). The compound further gave a pEC50 at C. elegans Slo-1a of 8.60.

With `CC(C)c1c(C(=O)N[C@H]2CCOc3ccccc32)sc2c(-c3ccc(F)c(F)c3)cccc12` [Example Compound S1-4, 7-(3,4-Difluorophenyl)-N-[(4S)-3,4-dihydro-2H-chromen-4-yl]-3-isopropyl-1-benzothiophene-2-carboxamide], in assay [1], the EC50 was determined as 0.77 µg/mL (≈ 1.66 µM). Moreover, the pEC50 at C. elegans Slo-1a was 7.30.

As for `O=C(N[C@H]1CCc2ccccc21)c1ccc2nc(-c3cccc(C(F)(F)F)c3Cl)cnc2c1` [Example Compound S9-6, 2-[2-Chloro-3-(trifluoromethyl)phenyl]-N-[(1S)-2,3-dihydro-1H-inden-1-yl]quinoxaline-6-carboxamide], in assay [1], the EC50 was 0.44 µg/mL (≈ 0.94 µM). The pEC50 on C. elegans Slo-1a was 7.50.

In the case of `CC(C)n1c(C(=O)N[C@H]2CCOc3ccccc32)cc2c(-c3cc(Cl)nc(Cl)c3)cccc21` [Example Compound S2-3, 4-(2,6-Dichloropyridin-4-yl)-N-[(4S)-3,4-dihydro-2H-chromen-4-yl]-1-(propan-2-yl)-1H-indole-2-carboxamide], the EC50 in assay [1] is over 2 µg/mL. On C. elegans Slo-1a, this compound showed a pEC50 of 7.00.

As for `CN(C)c1c(C(=O)N[C@H]2CCOc3ccccc32)sc2c(-c3cccc(Cl)c3Cl)nccc12` [Example Compound S1-13, 7-(2,3-Dichlorophenyl)-N-[(4S)-3,4-dihydro-2H-chromen-4-yl]-3-(dimethylamino)thieno[2,3-c]pyridine-2-carboxamide], in assay [1], the EC50 stood at 0.08 µg/mL (≈ 0.161 µM). Moreover, the pEC50 on C. elegans Slo-1a is 7.80.

As to `O=C(N[C@H]1CCOc2ccccc21)c1c(N2CCOCC2)c2cccc(-c3cc(Cl)cc(Cl)c3)c2[nH]c1=O` [Example Compound S8a-6, 8-(3,5-Dichlorophenyl)-N-[(4S)-3,4-dihydro-2H-chromen-4-yl]-4-(morpholin-4-yl)-2-oxo-1,2-dihydroquinoline-3-carboxamide], the EC50 in assay [1] amounted to 0.64 µg/mL (≈ 1.16 µM). At C. elegans Slo-1a, this compound had a pEC50 of 7.40.

In the case of `CC(C)n1c(C(=O)N[C@H]2CCOc3ccccc32)cc2c(-c3cccc(Cl)c3Cl)cccc21` [Example Compound S2-7, 4-(2,3-Dichlorophenyl)-N-[(4S)-3,4-dihydro-2H-chromen-4-yl]-1-(propan-2-yl)-1H-indole-2-carboxamide], the EC50 in assay [1] came to 0.01 µg/mL (≈ 0.0209 µM). Further, the pEC50 at C. elegans Slo-1a was 7.70.

In the case of `O=C(N[C@H]1CCOc2ccccc21)c1ccc2c(-c3cccc(Cl)c3Cl)nccc2c1` [Example Compound S6-2, 1-(2,3-Dichlorophenyl)-N-[(4S)-3,4-dihydro-2H-chromen-4-yl]isoquinoline-6-carboxamide], the EC50 in assay [1] is over 2 µg/mL. Also, the pEC50 at C. elegans Slo-1a is 6.10.

`CN(C)c1c(C(=O)N[C@H]2CCOc3ccccc32)sc2c(-c3cccc(Cl)c3)cccc12` [Example Compound S1-6, 7-(3-Chlorophenyl)-N-[(4S)-3,4-dihydro-2H-chromen-4-yl]-3-(dimethylamino)-1-benzothiophene-2-carboxamide]: the EC50 in assay [1] was 0.25 µg/mL (≈ 0.54 µM). The pEC50 on C. elegans Slo-1a is 7.50.

With `Cc1nn(-c2c(F)cccc2F)c2ncc(C(=O)N[C@H]3CCOc4ccccc43)c(N(C)C)c12` [Example Compound S4-3, 1-(2,6-Difluorophenyl)-N-[(4S)-3,4-dihydro-2H-chromen-4-yl]-4-(dimethylamino)-3-methyl-1H-pyrazolo[3,4-b]pyridine-5-carboxamide], the EC50 in assay [1] is 1.82 µg/mL (≈ 3.93 µM). At C. elegans Slo-1a, the pEC50 is 6.80.

`O=C(N[C@H]1CCOc2ccccc21)c1cnc2c(cnn2-c2c(F)cccc2F)c1Cl` [Example Compound S4-1, 4-Chloro-1-(2,6-difluorophenyl)-N-[(4S)-3,4-dihydro-2H-chromen-4-yl]-1H-pyrazolo[3,4-b]pyridine-5-carboxamide]: the EC50 in assay [1] is 0.41 µg/mL (≈ 0.93 µM). On C. elegans Slo-1a, the pEC50 was 5.95.

Regarding `CN(C)c1c(C(=O)N[C@H]2CCOc3ccccc32)sc2c(-c3ccc(F)c(F)c3)cccc12` [Example Compound S1-8, 7-(3,4-Difluorophenyl)-N-[(4S)-3,4-dihydro-2H-chromen-4-yl]-3-(dimethylamino)-1-benzothiophene-2-carboxamide], the EC50 in assay [1] turned out to be 0.63 µg/mL (≈ 1.36 µM). In addition, the pEC50 at C. elegans Slo-1a was 5.50.

For `O=C(N[C@H]1CCOc2ccccc21)c1ccc2c(-c3cccc(Cl)c3Cl)cccc2c1` [Example Compound S6-1, 5-(2,3-Dichlorophenyl)-N-[(4S)-3,4-dihydro-2H-chromen-4-yl]naphthalene-2-carboxamide], in assay [1], the EC50 was 0.63 µg/mL (≈ 1.41 µM). On C. elegans Slo-1a, the pEC50 is 7.10.

In the case of `CN(C)c1c(C(=O)N[C@H]2CCOc3ccccc32)ncc2c1ccc(=O)n2Cc1ccc(Cl)cc1` [Example Compound S7-2, 1-(4-Chlorobenzyl)-N-[(4S)-3,4-dihydro-2H-chromen-4-yl]-5-(dimethylamino)-2-oxo-1,2-dihydro 1,7-naphthyridine-6-carboxamide], the EC50 in assay [1] was over 2 µg/mL. Further, at C. elegans Slo-1a, the pEC50 is 6.00.

Take `CN(C)c1c(C(=O)N[C@H]2CCOc3ccccc32)cnc2c1n(C)c(=O)n2-c1cc(Cl)cc(Cl)c1` [Example Compound S5-1, 3-(3,5-Dichlorophenyl)-N-[(4S)-3,4-dihydro-2H-chromen-4-yl]-7-(dimethylamino)-1-methyl-2-oxo-2,3-dihydro-1H-imidazo[4,5-b]pyridine-6-carboxamide]: the EC50 in assay [1] came out at 0.38 µg/mL (≈ 0.742 µM). In addition, at C. elegans Slo-1a, the pEC50 was 7.00.
